Patent US20230313181A1, “HISTIDINE-LYSINE POLYMERS AND METHODS FOR DELIVERING MRNA USING THE SAME” (UNIVERSITY OF MARYLAND, BALTIMORE, priority 2019, published 2023)
Bridges are numbered along the chain shown (N, C = ends). Roman numbers before positions name the chains, in order. Where no end group is shown, it is not given here.

Experiments:
MDA-MB-231 cells = assay: mRNA transfection with HK associated lipid particles (HK polymer + DOTAP liposomes); assay type: cell-based; details: luciferase mRNA
Protocol: FIGS. 8A and 8B. Comparison of mRNA transfection with DOTAP and several HK polymers. To form HK associated lipid particles, the mRNA (1 μg) was initially mixed with the HK polymer (4 μg) for 30 min and then with the DOTAP liposomes (1 μg) for 30 min. HK polyplexes were prepared as described previously. These complexes were then added to the cells for 24 h before the luciferase activity was measured *, P<0.05; **, P<0.01; ***, P<0.001; […].
Transfection with HK associated lipid particles was done similarly as above with few exceptions. In brief, the HK polymer was mixed initially with mRNA at various ratios for 30 min in Opti-MEM. This was followed by adding the DOTAP cationic liposome (1,2-dioleoyl-3-trimethylam-monium-propane; […]; Roche, Basel, CH) for 30 additional min. The Opti-MEM mixture (50 μl) was then added dropwise to the cells.

[1] = Cell viability assay (trypan blue exclusion); assay type: cell-based; details: human, MDA-MB-231 cells, HK polymer 4 μg or polyplex (4 μg HK; 1 μg mRNA), then 19 h DMEM/10% FBS
Protocol: Cell Viability Assay. MDA-MB-231 cells were seeded at 5.0×10^4/well in a 24-tissue culture plate and incubated overnight in DMEM supplemented with 10% FBS serum. The media was then changed to Opti-MEM and the cells were treated with either the HK polymer (4 μg) or the HK polyplex (4 μg HK; 1 μg mRNA) for 5 h. After the media was changed to DMEM/10% FBS for 19 h, the cell viability was measured using the trypan blue cell exclusion assay (Trypan Blue solution, 0.4%, Sigma-Aldrich, St. Louis, MO).
After the medium was changed to Opti-MEM in cell cultures of the MDA-MB-231 cells used in the experiment described above, either the HK polymer (4 μg) or the HK polyplex (4 μg HK; 1 μg mRNA) was added dropwise to the cells and incubated for 5 h. The media was then changed to DMEM/10% FBS for 19 h and cell viability was determined using the trypan cell exclusion assay.

mRNA = assay: Gel retardation assay of HK polymer/mRNA polyplexes; assay type: physicochemical; details: 1:2 and 1:1 ratios (wt:wt; peptide:mRNA)
Protocol: FIG. 3. Gel retardation assay. After H3K(+H)4b or H3K4b carriers were mixed with mRNA at the various ratios shown in the figure (wt:wt; peptide:mRNA, mRNA was 1 μg in each) for 30 min, the HK polyplexes were loaded onto the gel (1% agarose). Electrophoresis was carried out at a constant voltage of 75 V for 30 min in TAE buffer and then stained with Sybr Gold as detailed herein. In first lane, RNA standard (New England Biolabls, B0363A) was loaded whereas in the second lane, the control, luciferase mRNA without a carrier was loaded into the well. In subsequent lanes, various ratios of mRNA:HK were loaded into wells.
Gel Retardation Assay. Various amounts of HK polymers were mixed with […] of mRNA and incubated for 30 min at room temperature. Specifically, the following HK polymer/mRNA ratios (w/w) were prepared in water: 1/2; 1/1; 2/1, 4/1, 8/1. After 30 min, the HK polyplex was loaded onto the gel (1% agarose, Sigma-Aldrich; 10× BlueJuice Gel loading buffer, ThermoFisher Scientific), electrophoresis was then carried out at a constant voltage of 75 V for 30 min in TAE buffer (Quality Biologicals, Gaithersburg, MD). The mRNA was stained with Sybr Gold Nucleic Acid dye (SG, 1×) (ThermoFisher Scientific) for 30 min before exposure to the UV imager (ChemiDoc Touch, BIO-RAD, Hercules, CA).

[2] = Particle size, polydispersity index (PDI) and zeta potential of polyplexes (Zetasizer); assay type: physicochemical
Protocol: Particle size, polydispersity index (PDI), and zeta potential. The size, PDI, and zeta potential were determined with the Zetasizer (Malvern, Westborough, Mass.) and analyzed with software provided by the instrument manufacturer (Zetasizer software, version 6.2). Using dynamic light scattering at a 90° angle, the size of the particles were reported as the Z-average diameter from the intensity-weighted size distribution. Prior to the measurements, the samples were equilibrated to 25° C. for 2 min. Each measurement had at least ten sub-runs under the automatic mode of the software. The particle size, PDI, and zeta potential data point represent the mean±SD of three measurements. After mixing HK peptides (4 μg) and mRNA (1 μg) in 100 μl of defined media (Opti-MEM, water, or DMEM/8% FBS) for 30 min, 100 μl of additional defined media was added to the polyplex solution (total volume 200 μl) to measure the size and PDI. To determine the zeta potential, 800 μl more of the media was added (total volume 1000 μl), mixed gently, and then added to the disposable zeta cell.
Because different stabilities were observed between the H3K4b and H3K(+H)4b polyplexes, whether the sizes of these polyplexes varied based on the media in which they were prepared was investigated. […] H3K(+H)4b and H3K4b peptides (4 μg) in complex with mRNA (1 μg) were mixed with either Opti-MEM, water, or DMEM/8% FBS […]. After 1 h, the size, PDI, and zeta potential were measured.

[3] = Acid-base titration of HK polymer solutions; assay type: physicochemical; details: pH titration curves, 5 mg/ml
Protocol: FIG. 2. Titration of different HK peptide solutions. Solutions of polymers (5 mg/ml) (H2K4b, H3K4b, H3K(+H)4b, and H4K4b) were adjusted to pH 3 (initial volume—1 ml) and then […] aliquots of 0.05 N NaOH were stepwise added and the pH measured.
Acid-Base Titration. After polymer solutions (e.g. containing one or more of H2K4b, H3K4b, H3K(+H)4b, and H4K4b) were adjusted to pH 3.0 (5 mg/mil; initial volume—1 mil), aliquots (5 μl) of NaOH (0.05 N) were stepwise added with the pH measured (FiveEasy™ meter; InLab Solids Pro-ISM pH electrode, Mettler Toledo, Columbus, OH). Titration was stopped at about pH 9.0.

[4] = prior studies [34, 35, 45]; cited from earlier work
[5] = polyplex HK 4 μg:mRNA 1 μg in DMEM/8% FBS
[6] = polyplex HK 4 μg:mRNA 1 μg in Opti-MEM
[7] = polyplex HK 4 μg:mRNA 1 μg in Water

## I: KHHHKHHHKHHHHKHHHKKKK-NH2 / II: KHHHKHHHKHHHHKHHHK / III: KHHHKHHHKHHHHKHHHK / IV: KHHHKHHHKHHHHKHHHK (amide I:19-IV:C, I:20-III:C, I:21-II:C) [H3K(+H)4b]
MDA-MB-231 cells
  mRNA transfection compared with DOTAP liposomes (in words): significantly better carriers of mRNA than the DOTAP liposomes
[1]
  viability at 5 h: 96.3%
mRNA
  retardation of mRNA at low ratios compared with H3K4b (in words): markedly less retarded
[2]; [5]
  PDI: 0.307
  Size: 289 ± 38.2 nm
  Zeta Potential: −12.7 ± 1.04 mV
[2]; [6]
  PDI: 0.362
  Size: 1004 ± 61.1 nm
  Zeta Potential: 2.92 ± 1.83 mV
[2]; [7]
  PDI: 0.212
  Size: 234.9 ± 2.7 nm
  Zeta Potential: 20.77 ± 1.12 mV
[3]
  buffering profile / buffering capacity (in words): minimal differences in their buffering profile
[4]
  carrier of siRNA (in words): effective carriers of siRNA
